Measurements reported in patent US7868005B2, “Pyrazinyl substituted piperazine-piperidines with CXCR3 antagonist activity” (Schering Corporation, priority 2005, dated 2011).

Molecular target: T1, human CXCR3 (N-delta 4) (Homo sapiens, UniProt P49682)
T1 construct: CD8 leader (N); Flag; expressed in transfected cells; membranes prepared
T1 sequence (P49682 5-368 limits assumed): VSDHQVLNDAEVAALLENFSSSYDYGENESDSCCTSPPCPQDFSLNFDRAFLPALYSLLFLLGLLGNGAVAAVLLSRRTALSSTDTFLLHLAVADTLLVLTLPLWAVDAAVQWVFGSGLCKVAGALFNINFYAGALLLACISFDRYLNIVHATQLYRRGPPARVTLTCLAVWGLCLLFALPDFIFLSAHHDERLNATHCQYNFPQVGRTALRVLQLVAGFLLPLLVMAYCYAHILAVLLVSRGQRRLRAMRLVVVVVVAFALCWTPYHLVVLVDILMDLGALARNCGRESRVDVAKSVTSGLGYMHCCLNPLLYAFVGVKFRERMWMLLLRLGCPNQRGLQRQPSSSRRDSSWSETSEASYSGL
Assay: Human CXCR3 (N-delta 4) Scintillation Proximity Assay (SPA), [125I] IP-10 binding to Ba/F3-hCXCR3 membranes
Settings: IC50 rating, Table 1; read-out: IC50

SMILES | IC50 [nM]
CC[C@H]1CN(c2nc(N)c(C(=O)NCCO[Si](C(C)C)(C(C)C)C(C)C)nc2Cl)CCN1C1CCN(Cc2ccc(F)c(F)c2N2CC[C@H](O)C2)CC1 [compound 374] | > 100
CC[C@H]1CN(c2nc(N)c(C(N)=O)nc2Cl)CCN1C1CCN(Cc2ccc(Cl)cc2C2COC(=O)O2)CC1 (stereo partly shown) [compound 375] | 25 to 100
CC[C@H]1CN(c2nc(N)c(C(N)=O)nc2Cl)CCN1C1CCN(Cc2ccc(Cl)cc2NC(=O)C(C)O)CC1 (stereo partly shown) [compound 377] | 25 to 100
CC[C@H]1CN(c2nc(N)c(C(N)=O)nc2Cl)CCN1C1CCN(Cc2ccc(Cl)cc2C(O)C(=O)N(C)C)CC1 (stereo partly shown) [compound 378] | < 25
CC[C@H]1CN(c2ncc(C(N)=O)nc2OC)CCN1C1CCN(C(=O)c2ccc(Cl)cc2)CC1 [compound 379] | > 100
CC[C@H]1CN(c2nc(N)c(C(N)=O)nc2Cl)CCN1C1CCN(Cc2ccc(Cl)cc2C2NC(=O)N(C)C2=O)CC1 (stereo partly shown) [compound 380] | > 100
CC[C@H]1CN(c2nc(N)c(C(N)=O)nc2Cl)CCN1C1CCN(Cc2ccc(Cl)cc2C(N)C(N)=O)CC1 (stereo partly shown) [compound 381] | 25 to 100
CC[C@H]1CN(c2nc(N)c(C(N)=O)nc2Cl)CCN1C1CCN(Cc2ccc(Cl)cc2C(NC(C)=O)C(N)=O)CC1 (stereo partly shown) [compound 382] | > 100
CC[C@H]1CN(c2ncc(C(N)=O)nc2NC)CCN1C1CCN(C(=O)c2ccc(Cl)cc2)CC1 [compound 383] | > 100
CC[C@H]1CN(c2ncc(C(=O)NC)nc2NC)CCN1C1CCN(C(=O)c2ccc(Cl)cc2)CC1 [compound 384] | > 100
CC[C@H]1CN(c2nc(N)c(C(N)=O)nc2Cl)CCN1C1CCN(Cc2ccc(Cl)cc2C2CNC(=O)O2)CC1 (stereo partly shown) [compound 385] | < 25
CC[C@H]1CN(c2nc(N)c(C(N)=O)nc2Cl)CCN1C1CCN(Cc2ccc(Cl)cc2N2CCN(C)C2=O)CC1 [compound 386] | < 25
CC[C@H]1CN(c2ncc(C(N)=O)nc2Br)CCN1C1CCN(C(=O)c2ccc(Cl)cc2)CC1 [compound 387] | < 25
CC[C@H]1CN(c2ncc(C(N)=O)nc2C)CCN1C1CCN(C(=O)c2ccc(Cl)cc2)CC1 [compound 388] | < 25
CC[C@H]1CN(c2nc(N)c(C(=O)NC(=N)NC)nc2Cl)CCN1C1CCN(Cc2ccc(Cl)c(F)c2)CC1 [compound 389] | < 25
CC[C@H]1CN(c2nc(N)c(C(=O)NC(=N)NC)nc2Cl)CCN1C1CCN(Cc2ccc(Cl)cc2)CC1 [compound 390] | < 25
CC[C@H]1CN(c2nc(N)c(C(=O)NC(=N)NC)nc2Cl)CCN1C1CCN(Cc2ccc(OC(F)(F)F)cc2)CC1 [compound 391] | < 25
CC[C@H]1CN(c2nc(N)c(C(=O)NC(=N)NC)nc2Cl)CCN1C1CCN(C(=O)c2ccc(Cl)c(F)c2)CC1 [compound 392] | < 25
CC[C@H]1CN(c2nc(N)c(C(=O)NC(=N)NC)nc2Cl)CCN1C1CCN(C(=O)c2ccc(Cl)cc2)CC1 [compound 393] | < 25
CC[C@H]1CN(c2nc(N)c(C(=O)NCCO)nc2Cl)CCN1C1CCN(Cc2ccc(F)c(OC)c2)CC1 [compound 394] | < 25
CC[C@H]1CN(c2ncc(C(N)=O)nc2Cl)CCN1C1CCN(Cc2ccc(Cl)cc2[C@H](O)C(N)=O)CC1 [compound 396] | < 25
CC[C@H]1CN(c2nc(N)c(C(=O)NCCO)nc2Cl)CCN1C1CCN(Cc2ccc(OC)c(F)c2)CC1 [compound 397] | < 25
CC[C@H]1CN(c2nc(N)c(C(=O)NC(=N)NC)nc2Cl)CCN1C1CCN(C(=O)c2ccc(F)c(F)c2)CC1 [compound 398] | < 25
CC[C@H]1CN(c2nc(N)c(C(=O)NC(=N)NC)nc2Cl)CCN1C1CCN(C(=O)c2ccc(C#N)cc2)CC1 [compound 399] | < 25
CC[C@H]1CN(c2nc(N)c(C(N)=O)nc2Cl)CCN1C1CCN(Cc2ccc(Cl)cc2S(N)(=O)=O)CC1 [compound 401] | < 25
CC[C@H]1CN(c2nc(N)c(C(=O)NC(=N)NC)nc2Cl)CCN1C1CCN(C(=O)c2ccc(OC(F)(F)F)cc2)CC1 [compound 402] | < 25
CC[C@H]1CN(c2nc(N)c(C(N)=O)nc2Cl)CCN1C1CCN(Cc2ccc(Cl)cc2C2NC(=O)NC2=O)CC1 (stereo partly shown) [compound 405] | > 100
CC[C@H]1CN(c2nc(N)c(C(N)=O)nc2Cl)CCN1C1CCN(Cc2ccc(Cl)cc2C2OC(=O)N(C)C2=O)CC1 (stereo partly shown) [compound 406] | > 100
CC[C@H]1CN(c2nc(N)c(C(N)=O)nc2Cl)CCN1C1CCN(Cc2ccc(Cl)cc2C2OC(=O)NC2=O)CC1 (stereo partly shown) [compound 407] | > 100

The remaining lines, values ahead:

IC50 [nM] | SMILES
25 to 100 | CC[C@H]1CN(c2ncc(C(N)=O)nc2C)CCN1C1CCN(C(=O)c2ccc(F)c(F)c2)CC1 [compound 408]
< 25 | CC[C@H]1CN(c2ncc(C(N)=O)nc2Cl)CCN1C1CCN(C(=O)c2ccc(Cl)c(OCCS(C)(=O)=O)c2)CC1 [compound 409]
< 25 | CC[C@H]1CN(c2nc(N)c(C(=O)NCCO)nc2Cl)CCN1C1CCN(Cc2ccc(Cl)c(OCCS(C)(=O)=O)c2)CC1 [compound 410]
< 25 | CC[C@H]1CN(c2nc(N)c(C(N)=O)nc2Cl)CCN1C1CCN(Cc2ccc(Cl)c(OCCS(C)(=O)=O)c2)CC1 [compound 411]
< 25 | CC[C@H]1CN(c2ncc(C(N)=O)nc2C)CCN1C1CCN(Cc2ccc(Cl)cc2)CC1 [compound 412]
< 25 | CC[C@H]1CN(c2nc(N)c(C(=O)NCCO)nc2Cl)CCN1C1CCN(Cc2ccc(F)c(OCCSC)c2)CC1 [compound 413]
< 25 | CC[C@H]1CN(c2nc(N)c(C(=O)NCCO)nc2Cl)CCN1C1CCN(Cc2ccc(OCCSC)c(F)c2)CC1 [compound 415]
< 25 | CC[C@H]1CN(c2ncc(C(N)=O)nc2C(F)(F)F)CCN1C1CCN(C(=O)c2ccc(Cl)cc2)CC1 [compound 416]
< 25 | CC[C@H]1CN(c2ncc(C(N)=O)nc2C)[C@H](C)CN1C1CCN(C(=O)c2ccc(Cl)cc2)CC1 [compound 417]
< 25 | CC[C@H]1CN(c2nc(N)c(C(=O)NCCO)nc2Cl)CCN1C1CCN(C(=O)c2ccc(F)c(O)c2)CC1 [compound 419]
< 25 | CC[C@H]1CN(c2nc(N)c(C(=O)NC3CC3)nc2Cl)CCN1C1CCN(Cc2ccc(Cl)cc2S(C)(=O)=O)CC1 [compound 420]
< 25 | CC[C@H]1CN(c2nc(N)c(C(=O)NCCO)nc2Cl)CCN1C1CCN(Cc2ccc(F)c(OS(C)(=O)=O)c2)CC1 [compound 421]
< 25 | CC[C@H]1CN(c2nc(N)c(C(=O)NCCO)nc2Cl)CCN1C1CCN(Cc2ccc(Cl)cc2S(C)(=O)=O)CC1 [compound 422]
25 to 100 | CCc1nc(C(N)=O)cnc1N1CCN(C2CCN(C(=O)c3ccc(Cl)cc3)CC2)[C@@H](CC)C1 [compound 423]
> 100 | CC[C@H]1CN(c2ncc(C(=O)NC3=NCCN3)nc2Cl)CCN1C1CCN(C(=O)c2ccc(Cl)cc2)CC1 [compound 424]
> 100 | CC[C@H]1CN(c2cnc(C(N)=O)cn2)CCN1C1CCN(Cc2ccc(Cl)cc2)CC1 [compound 425]
> 100 | CC[C@H]1CN(c2nc(N)c(C(=O)NCCO)nc2Cl)CCN1C1CCN(Cc2ccc(OS(C)(=O)=O)c(F)c2)CC1 [compound 426]
> 100 | CC[C@H]1CN(c2nc(N)c(C(=O)NCCO)nc2Cl)CCN1C1CCN(Cc2ccc(O)c(F)c2)CC1 [compound 427]

IC50 [nM] | SMILES
> 100 | CC[C@H]1CN(c2nc(N)c(C(N)=O)nc2Cl)CCN1C1CCN(Cc2ccc(O)c(F)c2)CC1 [compound 428]
> 100 | CC[C@H]1CN(c2nc(N)c(C(N)=O)nc2Cl)CCN1C1CCN(Cc2ccc(Cl)cc2S(=O)(=O)NC)CC1 [compound 429]
> 100 | CC[C@H]1CN(c2nc(N)c(C(=O)NCCO)nc2Cl)CCN1C1CCN(C(=O)c2ccc(CS(C)(=O)=O)cc2)CC1 [compound 430]
< 25 | CC[C@H]1CN(c2ncc(C(N)=O)nc2C)CCN1C1CCN(Cc2ccc(F)cc2)CC1 [compound 431]
< 25 | CC[C@H]1CN(c2ncc(C(N)=O)nc2C)[C@H](C)CN1C1CCN(Cc2ccc(F)cc2)CC1 [compound 432]
< 25 | CC[C@H]1CN(c2ncc(C(N)=O)nc2C)CCN1C1CCN(Cc2ccc(C)c(F)c2)CC1 [compound 433]
< 25 | CC[C@H]1CN(c2ncc(C(N)=O)nc2C)[C@H](C)CN1C1CCN(Cc2ccc(C#N)cc2)CC1 [compound 434]
< 25 | CC[C@H]1CN(c2ncc(C(=O)NC)nc2C)CCN1C1CCN(C(=O)c2ccc(F)cc2)CC1 [compound 435]
< 25 | CC[C@H]1CN(c2ncc(C(=O)NC)nc2C)CCN1C1CCN(C(=O)c2ccc(Cl)cc2)CC1 [compound 437]
< 25 | CC[C@H]1CN(c2cnc(C(N)=O)cn2)CCN1C1CCN([C@@H](CO)c2ccc(Cl)cc2)CC1 [compound 438]
< 25 | CC[C@H]1CN(c2ncc(C(=O)NC3CC3)nc2C)CCN1C1CCN(Cc2ccc(C)cc2)CC1 [compound 439]
< 25 | CC[C@H]1CN(c2ncc(C(=O)NC3CC3)nc2C)CCN1C1CCN(Cc2ccc(F)cc2)CC1 [compound 440]
< 25 | CC[C@H]1CN(c2ncc(C(N)=O)nc2C)CCN1C1CCN(C(=O)c2ccc(Cl)cc2N)CC1 [compound 442]
< 25 | CC[C@H]1CN(c2ncc(C(N)=O)nc2C)CCN1C1CCN([C@@H](CO)c2ccc(Cl)cc2)CC1 [compound 443]
< 25 | CC[C@H]1CN(c2ncc(C(N)=O)nc2C)CCN1C1CCN([C@H](CO)c2ccc(Cl)cc2)CC1 [compound 444]
< 25 | CC[C@H]1CN(c2ncc(C(N)=O)nc2C)CCN1C1CCN(Cc2ccc(C(F)(F)F)cc2)CC1 [compound 445]
< 25 | CC[C@H]1CN(c2ncc(C(=O)NC3CC3)nc2C)CCN1C1CCN(C(=O)c2ccc(C)cc2)CC1 [compound 446]
